Data reported in patent US11649218B2, “C-Abl tyrosine kinase inhibitory compound embodiments and methods of making and using the same” (The USA, as represented by the Secretary, Dept. of Health …, priority 2018, dated 2023).

system: Leukemia K562 cell; assay: Leukemia K562 cell proliferation/viability assay (CellTiterGlo, 48 hours); type: cell-based; design: unit not given here; conditions: K562 cells
Protocol: C-Abl is encoded by the ABL1 gene (NCBI Gene ID NO. 25). […] Assays for determining if a small molecule inhibits c-Abl activity are known. Non-limiting examples include cell proliferation assays using cancer cells that are BCR-Abl positive and depend on BCR-Abl for growth, such as the leukemia cell line K562. […] In some embodiments described herein, compounds are tested for ability to reduce K562 cell proliferation in an HTS adapted assay which measures cell viability using the reagent CellTiterGlo after 48 hours treatment.

| Compound | Efficacy |
| --- | --- |
| O=C1Nc2cc(OC(F)(F)F)ccc2Oc2ccc(-c3ccncc3)cc21 [NCGC00371309, 2-(Pyridin-4-yl)-8-(trifluoromethoxyl)dibenzo[b,f][1,4]oxazepin-11(10H)-one] | −77.6 |
| CS(=O)(=O)Nc1cccc(-c2ccc3c(c2)Oc2ccc(OC(F)(F)F)cc2C(=O)N3)c1 [NCGC00384295, N-(3-(11-Oxo-2-(trifluoromethoxy)-10,11-dihydrodibenzo[b,f][1,4]oxazepin-7-yl)phenyl)methanesulfonamide] | −80.6 |
| CS(=O)(=O)Nc1cccc(-c2ccc3c(c2)C(N)=Nc2cc(OC(F)(F)F)ccc2O3)c1 [NCGC00373124, N-(3-(11-Amino-8-(trifluoromethoxy)dibenzo[b,f][1,4]oxazepin-2-yl)phenyl)methanesulfonamide] | −87.5 |
| CN1CCN(C(=O)c2cccc(-c3ccc4c(c3)C(=O)Nc3cc(OC(F)(F)F)ccc3O4)c2)CC1 [NCGC00356690, 2-(3-(4-Methylpiperazine-1-carbonyl)phenyl)-8-(trifluoromethoxy)dibenzo[b,f][1,4]oxazepin-11(10H)-one] | −121.9 |
| O=C1Nc2cc(OC(F)(F)F)ccc2Oc2ccc(-c3cccc(S(=O)(=O)NCCO)c3)cc21 [NCGC00373064, N-(2-Hydroxyethyl)-3-(11-oxo-8-(trifluoromethoxy)-10,11-dihydrodibenzo[b,f][1,4]oxazepin-2-yl)benzenesulfonamide] | −103.3 |
| O=C1Nc2cc(OC(F)(F)F)ccc2Oc2ccc(-c3cccc(C(=O)N4CCOCC4)c3)cc21 [NCGC00356745, 2-(3-(Morpholine-4-carbonyl)phenyl)-8-(trifluoromethoxy)dibenzo[b,f][1,4]oxazepin-11(10H)-one] | −98.3 |
| O=C1Nc2cc(OC(F)(F)F)ccc2Oc2ccc(-c3cccnc3)cc21 [NCGC00371308, 2-(Pyridin-3-yl)-8-(trifluoromethoxy)dibenzo[b,f][1,4]oxazepin-11(10H)-one] | −7.0 |
| CN1C(=O)c2cc(-c3cccc(NS(C)(=O)=O)c3)ccc2Oc2ccc(OC(F)(F)F)cc21 [NCGC00384233] | −75.1 |
| CN1C(=O)c2ccc(-c3cccc(NS(C)(=O)=O)c3)cc2Oc2ccc(OC(F)(F)F)cc21 [NCGC00384234] | −54.1 |
| O=C1Nc2cc(OC(F)(F)F)ccc2Oc2ccc(-c3cccc(-c4nn[nH]n4)c3)cc21 [NCGC00420743, 2-(3-(2H-Tetrazol-5-yl)phenyl)-8-(trifluoromethoxy)dibenzo[b,f][1,4]oxazepin-11(10H)-one] | 0.0 |
| O=C1Nc2cc(OC(F)(F)F)ccc2Oc2ccc(-c3ccnc4[nH]ccc34)cc21 [NCGC00373059, 2-(1H-Pyrrolo[2,3-b]pyridin-4-yl)-8-(trifluoromethoxy)dibenzo[b,f][1.4]oxazepin-11(10H)-one] | −52.9 |
| O=C1Nc2cc(C(F)(F)F)ccc2Oc2ccc(-c3ccnc(N4CCOCC4)c3)cc21 [NCGC00481506, 2-(2-Morpholinopyridin-4-yl)-8-(trifluoromethyl)dibenzo[b,f][1,4]oxazepin-11(10H)-one] | −87.5 |
| O=C1Nc2cc(OC(F)(F)F)ccc2Oc2ccc(B(O)O)cc21 [NCGC00387437, (11-Oxo-8-(trifluoromethoxy)-10,11-dihydrodibenzo[b,f][1,4]oxazepin-2-yl)boronic acid] | −82.6 |
| N#CCCn1cc(-c2ccc3c(c2)C(=O)Nc2cc(OC(F)(F)F)ccc2O3)cn1 [NCGC00387293, 3-(4-(11-Oxo-8-(trifluoromethoxy)-10,11-dihydrodibenzo[b,f][1,4]oxazepin-2-yl)-1H-pyrazol-1-yl)propanenitrile] | −84.4 |
| O=C1Nc2cc(OC(F)(F)F)ccc2Oc2ccc(-c3cnn(CCN4CCOCC4)c3)cc21 [NCGC00387296, 2-(1-(2-Morpholinoethyl)-1H-pyrazol-4-yl)-8-(trifluoromethoxy)dibenzo[b,f][1,4]oxazepin-11(10H)-one] | −81.7 |
| O=C1Nc2cc(OC(F)(F)F)ccc2Oc2ccc(-c3ccc(CN4CCNCC4)s3)cc21 [NCGC00388560, 2-(5-(Piperazin-1-ylmethyl)thiophen-2-yl)-8-(trifluoromethoxy)dibenzo[b,f][1,4]oxazepin-11(10H)-one] | −95.0 |
| O=C(O)c1ccc2c(c1)C(=O)Nc1cc(OC(F)(F)F)ccc1O2 [NCGC00387752] | 0.0 |
| O=C(NCCO)c1cccc(-c2cc(Nc3ccc(OC(F)(F)F)cc3)ncn2)c1 [GNF-5] | −85.8 |
| O=C1Nc2cc(OC(F)(F)F)ccc2S(=O)(=O)c2ccc(-c3ccnc(N4CCOCC4)c3)cc21 [NCGC00483140, 2-(2-Morpholinopyridin-4-yl)-8-(trifluoromethoxy)dibenzo[b,f][1,4]thiazepin-11(10H)-one 5,5-dioxide] | −87.2 |
| CS(=O)(=O)Nc1cccc(-c2ccc3c(c2)Oc2cc(OC(F)(F)F)ccc2NC3=O)c1 [NCGC00384296, N-(3-(11-oxo-7-(trifluoromethoxy)-10,11-dihydrodibenzo[b,f][1,4]oxazepin-3-yl)phenyl)methanesulfonamide] | −73.3 |
| O=C1Nc2cc(OC(F)(F)F)ccc2Oc2ccc(-c3cncnc3)cc21 [NCGC00371310, 2-(Pyrimidin-5-yl)-8-(trifluoromethoxy)dibenzo[b,f][1,4]oxazepin-11(10H)-one] | −15.0 |
| O=C(NCCO)c1cccc(-c2ccc3c(c2)C(=O)Nc2cc(OC(F)(F)F)ccc2N3)c1 [NCGC00355556, N-(2-hydroxyethyl)-3-(11-oxo-8-(trifluoromethoxy)-10,11-dihydro-5H-dibenzo[b,e][1,4]diazepin-2-yl)benzamide] | −90.9 |
| COC(=O)c1ccc2c(c1)C(=O)Nc1cc(OC(F)(F)F)ccc1O2 [NCGC00387394] | 0.0 |
| NS(=O)(=O)c1cccc(-c2ccc3c(c2)C(=O)Nc2cc(OC(F)(F)F)ccc2O3)c1 [NCGC00371364, 3-(11-Oxo-8-(trifluoromethoxy)-10,11-dihydrodibenzo[b,f][1,4]oxazepin-2-yl)benzenesulfonamide] | −94.9 |
| NCCNC(=O)c1cccc(-c2ccc3c(c2)C(=O)Nc2cc(OC(F)(F)F)ccc2N3)c1 [NCGC00355568, N-(2-Aminoethyl)-3-(11-oxo-8-(trifluoromethoxy)-10,11-dihydro-5H-dibenzo[b,e][1,4]diazepin-2-yl)benzamide] | −81.4 |
| O=C1Nc2cc(OC(F)(F)F)ccc2Oc2ccc(-c3ccc4[nH]ncc4c3)cc21 [NCGC00373058, 2-(1H-Indazol-5-yl)-8-(trifluoromethoxy)dibenzo[b,f][1,4]oxazepin-11(10H)-one] | −74.3 |
| O=C1Nc2cc(OC(F)(F)F)ccc2Oc2ccc(-c3cnn(CCO)c3)cc21 [NCGC00387403, 2-(1-(2-Hydroxyethyl)-1H-pyrazol-4-yl)-8-(trifluoromethoxy)dibenzo[b,f][1,4]oxazepin-11(10H)-one] | −37.6 |
| COc1ccc(-c2ccc3c(c2)C(=O)Nc2cc(OC(F)(F)F)ccc2O3)cc1O [NCGC00373062, 2-(3-Hydroxy-4-methoxyphenyl)-8-(trifluoromethoxy)dibenzo[b,f][1,4]oxazepin-11(10H)-one] | −93.7 |
| NCc1ccc(-c2ccc3c(c2)C(=O)Nc2cc(OC(F)(F)F)ccc2O3)s1 [NCGC00388547, 2-(5-(Aminomethyl)thiophen-2-yl)-8-(trifluoromethoxy)dibenzo[b,f][1,4]oxazepin-11(10H)-one] | −91.7 |
